This data set has as its system CCRIS mutagenicity, Ames/micronucleus/aberration tests. Briefly: CCRIS mutagenicity studies.

Each structure is given as a SMILES string. Calls of active or inactive are those of the source. The rule behind the calls is not given here.

As to `Oc1cc(Cl)ccc1Oc1ccc(Cl)cc1Cl`, the mutagenic call is, setting by setting: (End Point: In vitro chromosomal aberrations, Test System: Chinese hamster ovary strain K1-BH4 cells, Metabolic Activation: None) “inactive; negative”; (End Point: In vitro chromosomal aberrations, Test System: Chinese hamster ovary strain K1-BH4 cells, Metabolic Activation: S-9) “inactive; negative”; (End Point: In vivo chromosomal aberrations, Test System: Bone marrow, Species: Rat, Strain/Sex: Wistar/Female, Route: Gavage) “inactive; negative”; (End Point: In vivo chromosomal aberrations, Test System: Bone marrow, Species: Rat, Strain/Sex: Wistar/Male, Route: Gavage) “inactive; negative”; (End Point: In vivo micronucleus, Test System: Bone marrow, Species: Mouse, Strain/Sex: CD-1 SPF Swiss albino, Route: Gavage) “inactive; negative”; (Test System: Ames Salmonella typhimurium, Strain/Indicator: TA98, Metabolic Activation: None, Method: Preincubation) “inactive; negative”. The mutagenic call is “inactive; negative” (Test System: Ames Salmonella typhimurium, Strain/Indicator: TA98, Metabolic Activation: None, Method: Standard Plate); “inactive; negative” (Test System: Ames Salmonella typhimurium, Strain/Indicator: TA98, Metabolic Activation: S-9, Method: Preincubation); “inactive; negative” (Test System: Ames Salmonella typhimurium, Strain/Indicator: TA98, Metabolic Activation: S-9, Method: Standard Plate); “inactive; negative” (Test System: Ames Salmonella typhimurium, Strain/Indicator: TA100, Metabolic Activation: None, Method: Preincubation); “inactive; negative” (Test System: Ames Salmonella typhimurium, Strain/Indicator: TA100, Metabolic Activation: None, Method: Standard Plate); “inactive; negative” (Test System: Ames Salmonella typhimurium, Strain/Indicator: TA100, Metabolic Activation: S-9, Method: Preincubation). Moreover, the mutagenic call by setting is: (Test System: Ames Salmonella typhimurium, Strain/Indicator: TA100, Metabolic Activation: S-9, Method: Standard Plate) “inactive; negative”; (Test System: Ames Salmonella typhimurium, Strain/Indicator: TA 1535, Metabolic Activation: None, Method: Preincubation) “inactive; negative”; (Test System: Ames Salmonella typhimurium, Strain/Indicator: TA 1535, Metabolic Activation: None, Method: Standard Plate) “inactive; negative”; (Test System: Ames Salmonella typhimurium, Strain/Indicator: TA 1535, Metabolic Activation: S-9, Method: Preincubation) “inactive; negative”; (Test System: Ames Salmonella typhimurium, Strain/Indicator: TA 1535, Metabolic Activation: S-9, Method: Standard Plate) “inactive; negative”; (Test System: Ames Salmonella typhimurium, Strain/Indicator: TA1537, Metabolic Activation: None, Method: Preincubation) “inactive; negative”. For the same molecule, the mutagenic call was “inactive; negative” (Test System: Ames Salmonella typhimurium, Strain/Indicator: TA1537, Metabolic Activation: None, Method: Standard Plate); “inactive; negative” (Test System: Ames Salmonella typhimurium, Strain/Indicator: TA1537, Metabolic Activation: S-9, Method: Preincubation); “inactive; negative” (Test System: Ames Salmonella typhimurium, Strain/Indicator: TA1537, Metabolic Activation: S-9, Method: Standard Plate); “inactive; negative” (Test System: Ames Salmonella typhimurium, Strain/Indicator: TA1538, Metabolic Activation: None, Method: Standard Plate); “inactive; negative” (Test System: Ames Salmonella typhimurium, Strain/Indicator: TA1538, Metabolic Activation: S-9, Method: Standard Plate).
On to `Fc1ccc(F)c2c1ccc1cccnc12`, for which the mutagenic call (Test System: AMES SALMONELLA TYPHIMURIUM, Strain/Indicator: TA100, Metabolic Activation: RAT, LIVER, S-9, PHENOBARBITAL AND 5,6-BENZOFLAVONE, Method: PREINCUBATION) was “active; positive”.
Consider `C[C@]12CC[C@H](O)CC1=CC[C@@H]1[C@@H]2CC[C@]2(C)C(=O)CC[C@@H]12`, for which the mutagenic call was “inactive; negative” (Test System: AMES SALMONELLA TYPHIMURIUM, Strain/Indicator: TA102, Metabolic Activation: RAT LIVER S-9, PHENOBARBITAL AND 5,6-BENZOFLAVONE, Method: STANDARD PLATE); “inactive; negative” (Test System: AMES SALMONELLA TYPHIMURIUM, Strain/Indicator: TA2638, Metabolic Activation: RAT LIVER S-9, PHENOBARBITAL AND 5,6-BENZOFLAVONE, Method: STANDARD PLATE); “inactive; negative” (Test System: E. COLI, Strain/Indicator: WP2 (PKM101), Metabolic Activation: RAT LIVER S-9, PHENOBARBITAL AND 5,6-BENZOFLAVONE, Method: STANDARD PLATE); “inactive; negative” (Test System: E. COLI, Strain/Indicator: WP2 UVRA (PKM101), Metabolic Activation: RAT LIVER S-9, PHENOBARBITAL AND 5,6-BENZOFLAVONE, Method: STANDARD PLATE); “inactive; negative” (Test System: UDS RAT HEPATOCYTES, Strain/Indicator: THY INCORP (18-20 HR), Metabolic Activation: NONE, Method: LIQUID SCINTILLATION COUNTING).
For the molecule `Clc1cccc(C2CO2)c1` (centres undefined), where the note is “Test System: E. COLI, Strain/Indicator: WP2 UVRA, Metabolic Activation: NONE, Method: STANDARD PLATE”, the mutagenic call was “active; positive”.
For the molecule `Nc1ccc(/C=C/c2ccc(N)cc2)cc1`, the mutagenic call was “inactive; negative” (Test System: AMES SALMONELLA TYPHIMURIUM, Strain/Indicator: TA98(1,8-DNP6), Metabolic Activation: NONE, Method: STANDARD PLATE); “inactive; negative” (Test System: AMES SALMONELLA TYPHIMURIUM, Strain/Indicator: TA98(1,8-DNP6), Metabolic Activation: S-9, Method: STANDARD PLATE); “inactive; negative” (Test System: AMES SALMONELLA TYPHIMURIUM, Strain/Indicator: TA98, Metabolic Activation: NONE, Method: STANDARD PLATE); “active; positive” (Test System: AMES SALMONELLA TYPHIMURIUM, Strain/Indicator: TA98, Metabolic Activation: RAT, LIVER, S-9, AROCLOR 1254, Method: STANDARD PLATE); “active; positive” (Test System: AMES SALMONELLA TYPHIMURIUM, Strain/Indicator: TA98, Metabolic Activation: S-9, Method: STANDARD PLATE); “inactive; negative” (Test System: AMES SALMONELLA TYPHIMURIUM, Strain/Indicator: TA100, Metabolic Activation: NONE, Method: STANDARD PLATE). Besides, the mutagenic call by setting is: (Test System: AMES SALMONELLA TYPHIMURIUM, Strain/Indicator: TA100, Metabolic Activation: RAT, LIVER, S-9, AROCLOR 1254, Method: STANDARD PLATE) “inactive; negative”; (Test System: AMES SALMONELLA TYPHIMURIUM, Strain/Indicator: TA100, Metabolic Activation: S-9, Method: STANDARD PLATE) “inactive; negative”.
Regarding `O=C(NO)c1ccccc1`, the mutagenic call (Test System: AMES SALMONELLA TYPHIMURIUM, Strain/Indicator: TA97, Metabolic Activation: HAMSTER, LIVER, S-9, AROCLOR 1254 (10%), Method: PREINCUBATION) was “active; positive”; the mutagenic call (Test System: AMES SALMONELLA TYPHIMURIUM, Strain/Indicator: TA97, Metabolic Activation: NONE, Method: PREINCUBATION) was “active; positive”; the mutagenic call (Test System: AMES SALMONELLA TYPHIMURIUM, Strain/Indicator: TA97, Metabolic Activation: RAT, LIVER, S-9, AROCLOR 1254 (10%), Method: PREINCUBATION) is “active; positive”; the mutagenic call (Test System: AMES SALMONELLA TYPHIMURIUM, Strain/Indicator: TA98, Metabolic Activation: HAMSTER, LIVER, S-9, AROCLOR 1254 (10 OR 30%), Method: PREINCUBATION) was “active; positive”; the mutagenic call (Test System: AMES SALMONELLA TYPHIMURIUM, Strain/Indicator: TA98, Metabolic Activation: NONE, Method: PREINCUBATION) is “active; positive”; the mutagenic call (Test System: AMES SALMONELLA TYPHIMURIUM, Strain/Indicator: TA98, Metabolic Activation: RAT, LIVER, S-9, AROCLOR 1254 (10%), Method: PREINCUBATION) was “active; positive”. Further, the mutagenic call is “active; positive” (Test System: AMES SALMONELLA TYPHIMURIUM, Strain/Indicator: TA98, Metabolic Activation: RAT, LIVER, S-9, AROCLOR 1254 (30%), Method: PREINCUBATION); “active; positive” (Test System: AMES SALMONELLA TYPHIMURIUM, Strain/Indicator: TA100, Metabolic Activation: HAMSTER, LIVER, S-9, AROCLOR 1254 (10 OR 30%), Method: PREINCUBATION); “active; positive” (Test System: AMES SALMONELLA TYPHIMURIUM, Strain/Indicator: TA100, Metabolic Activation: NONE, Method: PREINCUBATION); “active; positive” (Test System: AMES SALMONELLA TYPHIMURIUM, Strain/Indicator: TA100, Metabolic Activation: RAT, LIVER, S-9, AROCLOR 1254 (10 OR 30%), Method: PREINCUBATION); “active; positive” (Test System: AMES SALMONELLA TYPHIMURIUM, Strain/Indicator: TA1535, Metabolic Activation: HAMSTER, LIVER, S-9, AROCLOR 1254 (10%), Method: PREINCUBATION); “inactive; negative” (Test System: AMES SALMONELLA TYPHIMURIUM, Strain/Indicator: TA1535, Metabolic Activation: NONE, Method: PREINCUBATION). For the same molecule, the mutagenic call reads like this: (Test System: AMES SALMONELLA TYPHIMURIUM, Strain/Indicator: TA1535, Metabolic Activation: RAT, LIVER, S-9, AROCLOR 1254 (10%), Method: PREINCUBATION) “active; positive”; (Test System: AMES SALMONELLA TYPHIMURIUM, Strain/Indicator: TA1537, Metabolic Activation: HAMSTER, LIVER, S-9, AROCLOR 1254 (10%), Method: PREINCUBATION) “active; positive”; (Test System: AMES SALMONELLA TYPHIMURIUM, Strain/Indicator: TA1537, Metabolic Activation: NONE, Method: PREINCUBATION) “active; positive”; (Test System: AMES SALMONELLA TYPHIMURIUM, Strain/Indicator: TA1537, Metabolic Activation: RAT, LIVER, S-9, AROCLOR 1254 (10%), Method: PREINCUBATION) “active; positive”.

The record behind these values is PubChem BioAssay AID1259407 (Chemical Carcinogenesis Research Information System (CCRIS), 2018).
